From patent publication US8030359B2, “Polymer formulations of CETP inhibitors” (Merck Sharp & Dohme Corp., priority 2006, dated 2011)
Where two headings read alike, the source gives them in different places.

Columns and labels:
[1] = Phase III clinical trials, long-term outcomes study, group taking the drug compared with the control group; cited from earlier work
[2] = some patients who were taking torcetrapib; cited from earlier work
[3] = Pharmacokinetics (bioavailability) of formulations dosed to fasted Rhesus monkeys; type: in vivo; details: rhesus monkey, blood, 3 fasted Rhesus monkeys
Description: Examples of preparations of pharmaceutical formulations are provided below. Bioavailability is determined in vivo by dosing trial formulations and/or other formulations of the active pharmaceutical ingredient (API) to Rhesus monkeys (normally three monkeys per trial) at a dose of 1 mg/kg of the API and then measuring the amount of API in the serum or blood as a function of time. Comparisons are made with other formulations containing the same amount and same concentration of the API, such as a solid formulation with conventional excipients or a liquid filled gelatin capsule containing equal parts by weight of Tween 80 and Cremophor EL and varying amounts of the API. The API is any compound of Formula I to Ij, and most often is Compound H.
A formulation as described above comprised of 8.8% (w/w) Compound II, 35.2% HPMCAS-LF, 25.75% lactose monohydrate, 25.75% microcrystalline cellulose (Avicel PH 102), 3% croscarmellose sodium, 0.5% colloidal silicon dioxide, and 1% magnesium stearate was transferred to capsules (568 mg fill weight), with each capsule containing […] of Compound H. The pharmacokinetic profile of this composition was tested in a panel of 3 fasted Rhesus monkeys with a single dose of 1 mg/kg.
For comparison, a formulation containing Compound II without the polymer was made and tested, as follows. The non-polymer formulation contained 5% of Compound II, 5% SDS surfactant, 1.5% HPC-EXF, 1% croscarmellose sodium, and 87.5% lactose, and was prepared by wet granulation and used in a dry-filled capsule. The pharmacokinetic profile of this composition was measured by administering a single 1 mg/kg dose to a panel of 3 fasted Rhesus monkeys and then measuring the amount of Compound II in the blood of the monkeys for a period of at least 24 hours. […] The pharmacokinetics are not as good for the “conventional” formulation as for the polymer formulations, even though the “conventional” formulation used as a control included a surfactant.
The last 3 rows summarize pharmacokinetic data obtained by administering a single dose of the formulation at a dose of 1 mg/kg to panels of 3 fasted Rhesus monkeys and measuring the concentration of Compound II in the blood for a period of at least 24 hours. The compositions can be varied more broadly to obtain desired properties, as summarized after the table.

[4] = po, 1 mg/kg, HME tablet formulation with 8% Compound II, 28% copovidone, 4% Vitamin E TPGS, single dose 1 mg/kg
[5] = po, 1 mg/kg, HME tablet formulation with 10% Compound II, 35% copovidone, 5% Vitamin E TPGS, single dose 1 mg/kg
[6] = po, 1 mg/kg, HME tablet formulation with 12% Compound II, 42% copovidone, 6% Vitamin E TPGS, single dose 1 mg/kg
[7] = po, 1 mg/kg, spray dried polymer formulation in capsules (8.8% Compound II, 35.2% HPMCAS-LF), single dose 1 mg/kg, 24 hours
[8] = oral, non-polymer "conventional" control formulation (5% Compound II, 5% SDS, 1.5% HPC-EXF, 1% croscarmellose sodium, 87.5% lactose), wet granulation, dry-filled capsule, single 1 mg/kg dose

Cmax [3, 4]	Tmax [3, 4]	AUC(0-t) ([3]; po, 1 mg/kg, HME tablet formulation with 8% Compound II, 28% copovidone, 4% Vitamin E TPGS, single dose 1 mg/kg, read-out: AUC (0-24 hrs))	Cmax [3, 5]	Tmax [3, 5]	AUC(0-t) ([3]; po, 1 mg/kg, HME tablet formulation with 10% Compound II, 35% copovidone, 5% Vitamin E TPGS, single dose 1 mg/kg, read-out: AUC (0-24 hrs))	Cmax [3, 6]	Tmax [3, 6]	AUC(0-t) ([3]; po, 1 mg/kg, HME tablet formulation with 12% Compound II, 42% copovidone, 6% Vitamin E TPGS, single dose 1 mg/kg, read-out: AUC (0-24 hrs))	Cmax [3, 7]	Tmax [3, 7]	AUC(0-t) ([3]; po, 1 mg/kg, spray dried polymer formulation in capsules (8.8% Compound II, 35.2% HPMCAS-LF), single dose 1 mg/kg, 24 hours, read-out: AUC0-24)	Cmax [3, 8]	Tmax [3, 8]	SMILES	mortality versus control group [1]	effect on blood pressure [2]
–	–	–	–	–	–	–	–	–	–	–	–	–	–	CCOC(=O)N1c2ccc(C(F)(F)F)cc2[C@@H](N(Cc2cc(C(F)(F)F)cc(C(F)(F)F)c2)C(=O)OC)C[C@H]1CC [torcetrapib]	increase in mortality	increase blood pressure
100 ± 10 nM	4 ± 2 h	1.73 ± 0.28 µM·h	100 ± 10 nM	5.3 ± 2 h	1.62 ± 0.27 µM·h	130 ± 10 nM	6.7 ± 1.2 h	2.29 ± 0.21 µM·h	120 ± 80 nM	6.7 ± 2.3 h	1.99 ± 1.1 µM·h	40 ± 30 nM	18.7 ± 9.2 h	COc1cc(F)c(C(C)C)cc1-c1ccc(C(F)(F)F)cc1CN1C(=O)O[C@H](c2cc(C(F)(F)F)cc(C(F)(F)F)c2)[C@@H]1C [Compound II, (4S,5R)-5-[3,5-bis(trifluoromethyl)phenyl]-3-{[4′-fluoro-5′-isopropyl-2′-methoxy-4-(trifluoromethyl)biphenyl-2-yl]methyl}-4-methyl-1,3-oxazolidin-2-one]	–	–
